Measured values from patent publication US8076487B2, “Pyridone derivative and herbicide” (Kumiai Chemical Industry Co., Ltd., priority 2006, dated 2011).

Tests used:
Type in all cases: in vivo
[1] = tested on: barnyardgrass (Echinochloa crus-galli (L.) P. Beauv. var. crus-galli); assay: Test Example 2: herbicidal effect by soil application to upland field; details: soil surface spray, upland field soil, 1,000 g active ingredient per hectare, 21st day after application
How it was run: (§1)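 Using a small sprayer, we treat the soil surface of pots just after sowing and covering seeds. The aqueous wettable powder supplies 1,000 g a.i./ha in 1,000 L water/ha; after greenhouse growth, injury is scored on day 21 using a standard rating.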

[2] = tested on: green foxtail (Setaria viridis (L.) P. Beauv.); assay: as above; details: soil surface spray, upland field soil, 1,000 g active ingredient per hectare, 21st day after application
How it was run: as §1

[3] = tested on: velvetleaf (Abutilon theophrasti medicus); assay: as above; details: soil surface spray, upland field soil, 1,000 g active ingredient per hectare, 21st day after application
How it was run: as §1

[4] = tested on: slender amaranth (Amaranthus viridis L.); assay: as above; details: soil surface spray, upland field soil, 1,000 g active ingredient per hectare, 21st day after application
How it was run: as §1

[5] = tested on: barnyardgrass (Echinochloa crus-galli (L.) P. Beauv. var. crus-galli); assay: Test Example 3: herbicidal effect by application to upland field (foliage treatment); details: foliage treatment, 1,000 g active ingredient per 1 hectare, 14th day after application, greenhouse
How it was run: (§2)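 Plants were sown in field soil and raised in a greenhouse for two weeks before foliar spraying. A water-diluted wettable powder was applied at 1,000 g active ingredient per hectare in 1,000 liters per hectare. Herbicidal effect was scored on a standard scale 14 days later.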

[6] = tested on: green foxtail (Setaria viridis (L.) P. Beauv.); assay: as above; details: foliage treatment, 1,000 g active ingredient per 1 hectare, 14th day after application, greenhouse
How it was run: as §2

[7] = tested on: velvetleaf (Abutilon theophrasti medicus); assay: as above; details: foliage treatment, 1,000 g active ingredient per 1 hectare, 14th day after application, greenhouse
How it was run: as §2

[8] = tested on: slender amaranth (Amaranthus viridis L.); assay: as above; details: foliage treatment, 1,000 g active ingredient per 1 hectare, 14th day after application, greenhouse
How it was run: as §2

[9] = tested on: early watergrass (Echinochloa oryzicola Vasing); assay: Test Example 1: herbicidal effect by soil application to paddy field; details: paddy field soil application; active ingredient 1,000 g per 1 hectare; wettable powder added dropwise to water surface the day after sowing; examined on the 21st day after application
How it was run: (§3)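 Plants were sown in flooded (3 cm) paddy soil and evaluated for herbicidal effect 21 days after soil application in a greenhouse.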

[10] = tested on: Japanese bulrush (Scirpus juncoides Roxb.); assay: as above; details: paddy field soil application; active ingredient 1,000 g per 1 hectare; wettable powder added dropwise to water surface the day after sowing; examined on the 21st day after application
How it was run: as §3

[11] = tested on: heartshape false pickerelweed (Monochoria vaginalis (Burm.f.) C.Presl); assay: as above; details: paddy field soil application; active ingredient 1,000 g per 1 hectare; wettable powder added dropwise to water surface the day after sowing; examined on the 21st day after application
How it was run: as §3

Row | SMILES | herbicidal effect (index), Barnyardgrass [1] | herbicidal effect (index), Green Foxtail [2] | herbicidal effect (index), Velvetleaf [3] | herbicidal effect (index), Slender Amaranth [4] | herbicidal effect, Barnyardgrass [5] | herbicidal effect, Green Foxtail [6] | herbicidal effect, Velvetleaf [7] | herbicidal effect, Slender Amaranth [8] | herbicidal effect, Echinochloa oryzicola Vasing [9] | herbicidal effect, Scirpus juncoides Roxb. [10] | herbicidal effect, Monochoria vaginalis (Burm. f.) C. Presl [11]
1 | Cn1ncc(C(=O)c2ccc(C(F)(F)F)n(C3CCCC3)c2=O)c1O [IV-21] | 3 (50 to less than 70% of herbicidal effect and crop phytotoxicity) | 5 (90% or more of herbicidal effect and crop phytotoxicity) | 5 (90% or more of herbicidal effect and crop phytotoxicity) | 5 (90% or more of herbicidal effect and crop phytotoxicity) | 5 (90% or more of herbicidal effect and crop phytotoxicity) | 4 (70 to less than 90% of herbicidal effect and crop phytotoxicity) | 5 (90% or more of herbicidal effect and crop phytotoxicity) | 5 (90% or more of herbicidal effect and crop phytotoxicity) | 5 (90% or more of herbicidal effect and crop phytotoxicity) | 5 (90% or more of herbicidal effect and crop phytotoxicity) | 5 (90% or more of herbicidal effect and crop phytotoxicity)
2 | Cn1ncc(C(=O)c2ccc(C(F)(F)F)n(CCC=C(Cl)Cl)c2=O)c1O [IV-30] | 5 (90% or more of herbicidal effect and crop phytotoxicity) | 3 (50 to less than 70% of herbicidal effect and crop phytotoxicity) | 5 (90% or more of herbicidal effect and crop phytotoxicity) | 5 (90% or more of herbicidal effect and crop phytotoxicity) | 5 (90% or more of herbicidal effect and crop phytotoxicity) | 5 (90% or more of herbicidal effect and crop phytotoxicity) | 5 (90% or more of herbicidal effect and crop phytotoxicity) | 5 (90% or more of herbicidal effect and crop phytotoxicity) | 5 (90% or more of herbicidal effect and crop phytotoxicity) | 5 (90% or more of herbicidal effect and crop phytotoxicity) | 5 (90% or more of herbicidal effect and crop phytotoxicity)
3 | COCCn1c(C(F)(F)F)ccc(C(=O)c2cnn(C)c2O)c1=O [IV-33] | 5 (90% or more of herbicidal effect and crop phytotoxicity) | 5 (90% or more of herbicidal effect and crop phytotoxicity) | 5 (90% or more of herbicidal effect and crop phytotoxicity) | 5 (90% or more of herbicidal effect and crop phytotoxicity) | 5 (90% or more of herbicidal effect and crop phytotoxicity) | 5 (90% or more of herbicidal effect and crop phytotoxicity) | 5 (90% or more of herbicidal effect and crop phytotoxicity) | 5 (90% or more of herbicidal effect and crop phytotoxicity) | 5 (90% or more of herbicidal effect and crop phytotoxicity) | 5 (90% or more of herbicidal effect and crop phytotoxicity) | 5 (90% or more of herbicidal effect and crop phytotoxicity)
4 | CCOCCn1c(C(F)(F)F)ccc(C(=O)c2cnn(C)c2O)c1=O [IV-34] | 5 (90% or more of herbicidal effect and crop phytotoxicity) | 5 (90% or more of herbicidal effect and crop phytotoxicity) | 5 (90% or more of herbicidal effect and crop phytotoxicity) | 5 (90% or more of herbicidal effect and crop phytotoxicity) | 5 (90% or more of herbicidal effect and crop phytotoxicity) | 5 (90% or more of herbicidal effect and crop phytotoxicity) | 5 (90% or more of herbicidal effect and crop phytotoxicity) | 5 (90% or more of herbicidal effect and crop phytotoxicity) | 5 (90% or more of herbicidal effect and crop phytotoxicity) | 5 (90% or more of herbicidal effect and crop phytotoxicity) | 5 (90% or more of herbicidal effect and crop phytotoxicity)
5 | CCOCCn1c(C(F)(F)F)ccc(C(=O)c2cnn(C)c2OC(=O)c2ccccc2)c1=O [IV-35] | 5 (90% or more of herbicidal effect and crop phytotoxicity) | 5 (90% or more of herbicidal effect and crop phytotoxicity) | 5 (90% or more of herbicidal effect and crop phytotoxicity) | 5 (90% or more of herbicidal effect and crop phytotoxicity) | 5 (90% or more of herbicidal effect and crop phytotoxicity) | 5 (90% or more of herbicidal effect and crop phytotoxicity) | 5 (90% or more of herbicidal effect and crop phytotoxicity) | 5 (90% or more of herbicidal effect and crop phytotoxicity) | 5 (90% or more of herbicidal effect and crop phytotoxicity) | 5 (90% or more of herbicidal effect and crop phytotoxicity) | 5 (90% or more of herbicidal effect and crop phytotoxicity)
6 | COCC(C)n1c(C(F)(F)F)ccc(C(=O)c2cnn(C)c2O)c1=O (centres unmarked) [IV-36] | 5 (90% or more of herbicidal effect and crop phytotoxicity) | 3 (50 to less than 70% of herbicidal effect and crop phytotoxicity) | 5 (90% or more of herbicidal effect and crop phytotoxicity) | 5 (90% or more of herbicidal effect and crop phytotoxicity) | 5 (90% or more of herbicidal effect and crop phytotoxicity) | 5 (90% or more of herbicidal effect and crop phytotoxicity) | 5 (90% or more of herbicidal effect and crop phytotoxicity) | 5 (90% or more of herbicidal effect and crop phytotoxicity) | 5 (90% or more of herbicidal effect and crop phytotoxicity) | 5 (90% or more of herbicidal effect and crop phytotoxicity) | 5 (90% or more of herbicidal effect and crop phytotoxicity)
7 | CCCS(=O)(=O)Oc1c(C(=O)c2ccc(C(F)(F)F)n(C(C)COC)c2=O)cnn1C (centres unmarked) [IV-37] | 5 (90% or more of herbicidal effect and crop phytotoxicity) | 5 (90% or more of herbicidal effect and crop phytotoxicity) | 5 (90% or more of herbicidal effect and crop phytotoxicity) | 5 (90% or more of herbicidal effect and crop phytotoxicity) | 5 (90% or more of herbicidal effect and crop phytotoxicity) | 3 (50 to less than 70% of herbicidal effect and crop phytotoxicity) | 5 (90% or more of herbicidal effect and crop phytotoxicity) | 5 (90% or more of herbicidal effect and crop phytotoxicity) | 5 (90% or more of herbicidal effect and crop phytotoxicity) | 5 (90% or more of herbicidal effect and crop phytotoxicity) | 5 (90% or more of herbicidal effect and crop phytotoxicity)
